This passage reports IC50 results from ChEMBL document CHEMBL3232931 (J Med Chem, 2014).

The assay has as its target T1, Ubiquitin carboxyl-terminal hydrolase isozyme L1 (Homo sapiens, UniProt P09936).
T1 sequence (P09936 whole entry): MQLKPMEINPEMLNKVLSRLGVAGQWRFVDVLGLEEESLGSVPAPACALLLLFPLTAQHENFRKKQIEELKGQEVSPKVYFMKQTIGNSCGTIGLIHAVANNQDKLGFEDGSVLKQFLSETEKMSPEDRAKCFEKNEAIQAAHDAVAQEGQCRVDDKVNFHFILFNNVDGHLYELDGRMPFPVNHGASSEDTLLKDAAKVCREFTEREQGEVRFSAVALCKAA
The experiment in a line: Inhibition of human UCHL1.

For the compound `C[C@H](c1cccc2ccccc12)N1CCC(C(=O)NCc2ccc(F)cc2)CC1`, the IC50 entry was “Not Active”.
As to `C[C@H](c1cccc2ccccc12)N1CCC(C(=O)NCc2cccc(F)c2)CC1`, the IC50 result is reported as “Not Active”.
As to `CC(=O)Nc1cccc(CNC(=O)C2CCN([C@H](C)c3cccc4ccccc34)CC2)c1`, the IC50 result is given as “Not Active”.
The entry for `C[C@H](c1cccc2ccccc12)N1CCC(C(=O)NCc2ccc3c(c2)OCO3)CC1` is “Not Active”.
